US8791158B2, “Methods of treating meibomian gland dysfunction” (GTX, Inc., priority 2010, dated 2014)
Where two headings read alike, the source gives them in different places. Marks after values point to notes of the source that are not given here.

Columns and labels:
[1] = test system: orchiectomized (ORX) rabbits; test: Dose effect on palmitate:stearate ratio in tears, harderian and Meibomian glands, Example 5; assay type: in vivo, rabbit; details: for Palmitate:stearate ratio in Meibomian gland / Palmitate:stearate ratio in harderian gland / Palmitate:Stearate Ratio in Tears: ORX rabbits; for Palmitate:stearate ratio in Meibomian gland / Palmitate:stearate ratio in harderian gland: mean; for Increase of lipid (palmitate:stearate) ratio in harderian glands: topical 1.25 mg/kg (highest dose tested); for Change in Meibomian gland lipids / Dose dependence of palmitate:stearate ratio in harderian glands / Dose dependence of palmitate:stearate ratio in tears: topical 0.625 and 1.25 mg/kg; for Palmitate:Stearate Ratio in Tears: day 15, mean
Description: The goal of this study was to determine the effect of dosage amounts of Compounds 1 and 2 on tear composition.
Thirty New Zealand white rabbits weighing approximately 3 lbs were allowed to acclimate for two weeks before the start of the study Animals were weighed on day 0 of the study, randomized according to body weight and allotted to the following orchiectomized (ORX) dose groups:
Surgeries for the study were staggered to limit the maximum number of surgeries per day to six. One animal from each group was entered into the study every day and castration was performed as described below. Animals were premedicated with glycopyrrolate (0.02 mg/kg) and anesthesia was induced with a combination of ketamine (15 mg/kg): medetomidine (0.25 mg/kg). Anesthesia was maintained with isoflurane (1 liter/hr). Orchiectomy was performed using a scrotal incision. Animals were reversed from anesthesia using atipamezole (1 mg/kg) SQ. Analgesia was provided with buprenorphine (0.05 mg/kg) SQ immediately after the animal's regained sternal recumbency.
(§1) Immediately after recovery from anesthesia, the animals were dosed with the appropriate test articles as indicated above. Drug dosing was performed once daily for 14 d. Blood samples were collected on day 11 of dosing at 0, 30, 60, 120, 240 and 1440 minutes post administration and to plasma separated for LCMS analysis of parent drug concentrations. Tears were collected using Schirmer tear strips (Alcon, Tex.) on day 0 before surgery and 24 hours after the last administration of drug (day 15). The tears were stored at −80° C. until shipment for lipid analysis. Lipids were hydrolyzed, extracted from the Schirmer strips, derivatized, and subjected to GC-FID to evaluate the lipid composition. The samples were evaluated for the presence of 28 saturated and unsaturated fatty acids that included methyl caprate (C10:0), methyl laurate (C12:0), methyl 11-dodecenoate (C12:1), methyl myri state (C14:0), methyl myristoleate (C14:1), methyl palmitate (C16:0), methyl palmitoleate (C16:1), methyl stearate (C18:0), methyl oleate (C18:1), methyl vaccenate (C18:1), methyl linoleate (C18:2), methyl gamma linoleate (C18:3), methyl linoleate (C18:3), methyl arachidate (C20:0), methyl 11-eicosenoate (C20:1), methyl 11,14 eicosadinoate (C20:2), methyl 8,11,14 eicosatrienoate (C20:3), methyl eicosapentaenoate (C20:5), methyl behenate (C22:0), methyl erucate (C22:1), methyl 13,16 docosaenoate (C22:2), methyl docosatetraenoate (C22:4), methyl docosapentaenoate (C22:5), methyl docosahexaenoate (C22:6), methyl lignocerate and (C24:0), methyl nervonate (C24:1). Area under the curve for each individual peak was determined using the GC ChemStation software. To normalize for the tear content, the lipid composition was expressed as a ratio of the lipid that was most affected by castration (palmitate) to one which remained relatively constant (stearate).
At the end of the study, the animals were euthanatized. The harderian and Meibomian glands were collected for lipid analysis and snap frozen using an ethanol: dry ice bath. Samples were stored at −80 C until ready to ship for analysis.
Lipids in rabbit tears are derived from secretions of the harderian and Meibomian glands. Lipid content in the glands was assayed using GCMS. […] The lipid ratio was increased by more than 2-fold by Compound 1 (1.25 mg/kg), while the effect of Compound 2 was even greater with an almost 3-fold increase in the lipid ratio seen at the highest dose tested (1.25 mg/kg).

[2] = Pharmacokinetic analysis of rabbit plasma after topical dosing, Example 5; assay type: in vivo; details: for Amount of drug absorbed into systemic circulation at lower doses compared to exposure at 2.5 mg/kg: lower topical doses vs 2.5 mg/kg (Table 6); for AUC: rabbit, plasma, topical or ocular, day 11, read-out: Systemic AUC
Experimental: as §1
Plasma samples collected after dosing were analyzed using an LCMS/MS method. Briefly, plasma samples were prepared by protein precipitation extraction. (S)—N-(4-Cyano-3-(trifluoromethyl)phenyl)-3-(4-chlorophenoxy)-2-hydroxy-2-methylpropanamide was used as internal standard. The analysis of Compound 1 and Compound 2 was performed using an LC-MS/MS system consisting of an Agilent 1100 HPLC with an MDS/Sciex 4000 Q-Trap™ mass spectrometer. The separation was achieved using a C18 analytical column (Alltima™, 2.1×100 mm, 3 μm) protected by a C18 guard column (SecurityGuard™ 4.0×2.0 mm ID, Phenomenex). Mobile phase consisted of 60% acetonitrile, 40% water and 0.1% formic acid. Mobile phase was delivered at a flow rate of 0.3 mL/min Multiple reaction monitoring (MRM) scans were performed using curtain gas and a source temperature of 500° C. Molecular ions were formed using an ion spray voltage of −4500 V. Product ions were formed in nitrogen gas at a declustering potential of −55 V (Compound 1), −64 V (Compound 2), and −78 V (Internal standard) and collision energy of −24.0 V (Compound 1, m/z 388.0→117.9), −26.0 V (Compound 2, m/z 406.1→135.9), and −22.4 V (Internal standard, m/z 396.9→241.0). The plasma concentration—time data were analyzed by non-compartmental methods using WinNonlin (Version 3.1, Pharsight Corporation, Mountain View, Calif., USA). The area under the plasma concentration—time curve from time zero to infinity (AUC) was calculated by the trapezoidal rule with extrapolation to time infinity.
Systemic exposures after topical administration of the blood was determined in peripheral blood samples obtained at 30, 60, […], 240 and 1440 minutes after drug administration on day 11 of the study.

SMILES	Palmitate:stearate ratio in Meibomian gland ([1]; topical 0.625 mg/kg)	Palmitate:stearate ratio in harderian gland ([1]; topical 0.625 mg/kg)	Palmitate:stearate ratio in Meibomian gland ([1]; topical 1.25 mg/kg)	Palmitate:stearate ratio in harderian gland ([1]; topical 1.25 mg/kg)	Increase of lipid (palmitate:stearate) ratio in harderian glands [1]	Change in Meibomian gland lipids [1]	Dose dependence of palmitate:stearate ratio in harderian glands [1]	Dose dependence of palmitate:stearate ratio in tears [1]	Amount of drug absorbed into systemic circulation at lower doses compared to exposure at 2.5 mg/kg [2]	AUC ([2]; 0.625 mg/kg, topical 0.625 mpk) [µM·h]	AUC ([2]; 1.25 mg/kg, topical 1.25 mpk) [µM·h]	Palmitate:Stearate Ratio in Tears ([1]; topical 0.625 mg/kg once daily 14 d)	Palmitate:Stearate Ratio in Tears ([1]; topical 1.25 mg/kg once daily 14 d)
C[C@](O)(COc1ccc(C#N)cc1)C(=O)Nc1ccc(C#N)c(C(F)(F)F)c1 [Compound 1, (S)—N-(4-Cyano-3-(trifluoromethyl)phenyl)-3-(4-cyanophenoxy)-2-hydroxy-2-methylpropanamide]	3.29	3.45^a,b	3.68	4.87^a,b	more than 2 fold	No statistically significant change	dose dependent increase	no significant dose dependent changes	⅛^th	2.87	3.99	–	–
C[C@](O)(COc1ccc(C#N)c(F)c1)C(=O)Nc1ccc(C#N)c(C(F)(F)F)c1 [Compound 2, (S)—N-(4-cyano-3-(trifluoromethyl)phenyl)-3-(4-cyano-3-fluorophenoxy)-2-hydroxy-2-methylpropanamide]	3.36	6.09^a,b	3.31	5.30^a,b	~3 fold	No statistically significant change	dose dependent increase	dose dependent increase	¼^th	3.2	6.92	2.67^a,b	3.93^a,b
